# Measurements published in US20220053796A1, “COMPOSITION FOR SUPPORTING ANIMAL WITH CANCER” (MARS, INCORPORATED, priority 2018, published 2022).
# Counter-ions that a name gives are not always drawn. Like-named read-outs stand apart in the source and are kept apart here.
# Tests used:
# Type in all cases: cell-based, canine
# [1] = test system: HMPOS; assay: ATPlite proliferation assay; conditions: Canis lupus familiaris, 72 h
# Experimental: (§1) The different cancer cell lines were plated at the optimal number of cells per well in 90 μL of appropriate medium/well in flat-bottom microtitration 96-well plates. Plates were incubated at 37° C. for 24 hours before treatment in drug free culture medium. After a first dilution process, 10 μl of the test substances (single) were added on plate containing cells 24h after plating. Tumor cell lines were incubated for 72 h at 37° C. under 5% CO2 with 9 concentrations of each natural extract in 1:2 dilution steps. Top dose was 100 μg/ml for each plant extract and 1 μM for doxorubicin. Each concentration was tested in triplicates. Dilutions of each test substance as well as distribution to plates containing cells were performed manually. At least 2 independent experiments were performed for each plant extract. Control cells were treated with vehicles alone. […]
# (§2) At the end of treatments, the cytotoxic activity of tested substances was evaluated by ATP-Lite assay (Ref. 6016949, Perkin-Elmer, and Batch 69-12172). […] This ATP level is quantified by the luminescence emitted by the firefly luciferase, through an ATP-dependent reaction. […] After, the plate was left for ten minutes in the dark and luminescence was measured as LV (Luminescence Value).
# Chou-Tallalay CI corresponds to the combination indexes calculated using the appropriate algorithms. […]
# [2] = test system: CMT-12 cancer cell line; assay: MTT proliferation assay; conditions: Canis lupus familiaris
# Experimental: (§3) Cells were plated at a density of 4×10^3 cells per well on 96-well tissue culture-treated flat bottom plates and incubated overnight in complete medium. Cells were treated the following day with DMSO control or extract using a twofold serial dilution for 8 final concentrations ranging from […] to 100 μg mL-1 for 48 h to assess all extracts for potential effectiveness at reducing cellular proliferation. To quantify cellular proliferation, MTT dye assays were performed by adding 30 μL of MTT dye (5 mg mL-1 in phosphate-buffered saline solution) to each well and incubating at 37° C. for 1 h. Media were then aspirated and the cells were solubilized in 200 μL of isopropanol. The optical density of each well was analyzed on a spectrophotometric plate reader (Epoch; Biotek, Winooski, Vt., USA) at a wavelength of 570 nm.
# (§4) Synergy between extracts was examined using combinations of two extracts at six concentrations: 0.8, 1.7, 3.1, 6.3, 12.5, or 25 μg mL-1. The percent proliferating cells of control for each treatment was pooled from all experiments and is reported as mean f standard error of the mean.
# (§5) Raw data from proliferation assays (optical density of each well) were normalized to the vehicle alone treatment for individual assays, considered to represent 100% proliferating cells (single or combined treatment). The % proliferating cells was then averaged across each replicate. The IC50 for each extract was then calculated across experiments by Probit analysis. The compound interactions were calculated by multiple drug effect analysis using CalcuSyn software (v.2.11; Biosoft, Cambridge, GB, United Kingdom).
# [3] = test system: D17 cancer cell line; assay: MTT proliferation assay; conditions: Canis lupus familiaris
# Experimental: as §3, §4, §5
# [4] = test system: CF41.Mg cell line; assay: ATPlite proliferation assay; conditions: Canis lupus familiaris, 72 h
# Experimental: as §1, §2
# [5] = test system: C2 cancer cell line; assay: MTT proliferation assay
# Experimental: as §3, §4, §5
# [6] = read-out: chemotherapy IC50 (mass concentration in brackets)
Compound,IC50 [1] [nM],IC50 ([2]; read-out: chemotherapy IC50) [nM],"IC50 [2, 6] [µg/mL]",IC50 ([3]; read-out: chemotherapy IC50) [nM],"IC50 [3, 6] [µg/mL]",IC50 [4] [nM],chemotherapy IC50 (mass concentration in brackets) [5],IC50 ([5]; read-out: chemotherapy IC50) [nM]
COc1cccc2c1C(=O)c1c(O)c3c(c(O)c1C2=O)C[C@@](O)(C(=O)CO)C[C@@H]3O[C@H]1C[C@H](N)[C@H](O)[C@H](C)O1 [doxorubicin hydrochloride],11,300,0.163,500,0.272,375 ± 361,–,–
toceranib phosphate,–,–,–,–,–,–,nM (6.2 ng mL^−1),12.5
